Structures can show the parent of a compound that is named as a salt. Where two headings read alike, the source gives them in different places.
Assays:
ATXN2-luc [1] = conditions: H2 cells
ATXN2-luc [2] = conditions: average ATXN2-luc response of H2 and S1 cells
in vitro = conditions: human
Procedure: (§1) Compounds were plated at 2× concentrations in 25 μl in 384 well plates with each compound dose plated in triplicate. An equal volume of S2, H2, or SC cells (24,000 cells/well) suspended in phenol-red free Dulbecco's Modified Eagle Medium (DMEM) with 10% fetal bovine serum and 1× penicillin/streptomycin were added. Cells were grown 24 hrs then assayed first by using the CellTiter-Fluor reagent (20 μl) followed by the addition of Bright-Glo ([…]) luciferase assay, using a multimode plate reader (Beckman DT880). Values were reported as the mean±standard deviation (SD) with n=3. IC50s were determined by the Hill coefficient method using an online tool (https://www.aatbio.com/tools/ic50-calculator).
(§2) These 46 compounds were retested at 12 doses and a zero-compound dose, in multiplexed assays in 96-well plates using CellTiter-Fluor to determine cell viability, then Bright-Glo to determine luciferase expression. The values for H2 and S2 were used as replicates to calculate IC50s and to assess cell viability.
(§3) For CMV-luc and viability charts, the fitted lines are second-order polynomials. Means and SD are shown.

ATXN2-luc [3] = assay: Secondary assays, Bright-Glo luciferase in H2 and S2 cells; assay type: cell-based
Procedure: as §1, §2, §3

CMV-luc = assay: Secondary assays, Bright-Glo luciferase in SC cells; assay type: cell-based; conditions: minimum CMV-luc luciferase in SC cells over 12 doses
Procedure: as §1, §3

ATXN2-luc [4] = assay: cells; conditions: for activity at 10 µM: read-out: Luc at 10 μm; for activity at 1 µM: read-out: Luc at 1 μm
[5] = Table 1, 24 hrs, single 10 μM dose, Z-score of luciferase

| Compound | SD from Mean (ATXN2-luc [1]; [5]) | Luc at 1 μm (ATXN2-luc [2]) | Luc at 10 μm (ATXN2-luc [2]) | SD from Mean (ATXN2-luc [1]; Table 5S, pilot screen, 10 μM) | activity at 10 µM (ATXN2-luc [4]) | activity at 1 µM (ATXN2-luc [4]) | other results |
| --- | --- | --- | --- | --- | --- | --- | --- |
| CCCCCCCCCOc1ccc2[nH]cc(CCN)c2c1 [ChemBridge ID# 5629242] | −3.609 SD | 110 | 58 | – | – | – | – |
| O=C(NC1CCNCC1)c1n[nH]cc1NC(=O)c1c(Cl)cccc1Cl [AT7519] | – | – | – | – | – | – | viability at 24 h (in vitro): 50.3% |
| CNC(=O)c1nn(C)c2c1C(C)(C)Cc1cnc(Nc3ccc(N4CCN(C)CC4)cc3)nc1-2 [Milciclib] | – | – | – | – | – | – | viability at 24 h (in vitro): 74.4% |
| C1CCC(N=C(NC23CC4CC(CC(C4)C2)C3)N2CCOCC2)CC1.Cl [U-37883A] | −4.965 SD | 94 | 17 | −4.965 SD | – | – | – |
| C=CCn1c(=O)c2cnc(Nc3ccc(N4CCN(C)CC4)cc3)nc2n1-c1cccc(C(C)(C)O)n1 [MK-1775] | – | – | – | – | – | – | viability at 24 h (in vitro): 77.9% |
| CS(=O)(=O)Nc1ccc(Cc2noc(-c3ccc4[nH]cc(CCN)c4c3)n2)cc1 [L-694 247] | −3.156 SD | 110 | 6 | −3.156 SD | – | – | – |
| CC(C)c1cc(/C=C(\C#N)C(=O)NCCCc2ccccc2)cc(C(C)C)c1O [SU1498] | −4.885 SD | 22 | 15 | −4.885 SD | – | – | – |
| CO[C@H]1[C@@H](O)[C@@H](C)O[C@@H](O[C@H]2CC[C@]3(C)[C@H]4CC[C@]5(C)[C@@H](C6=CC(=O)OC6)CC[C@]5(O)[C@@H]4CC[C@]3(O)C2)[C@@H]1O [EMICYMARIN] | −3.080 SD | 115 | 31 | −3.080 SD | – | – | – |
| Nc1ccc(-c2ccc3ncc4ccc(=O)n(-c5cccc(C(F)(F)F)c5)c4c3c2)cn1 [Torin2] | – | – | – | – | – | – | IC50 (ATXN2-luc [3]; ATXN2-luc, Bright-Glo, H2 and S2 values used as replicates, 12 doses, 96-well plates, read-out: Mean IC50): 257 nM; min ATXN2-luc (ATXN2-luc [3]; minimum ATXN2-luc luciferase over 12 doses, H2 and S2 cells): 25.42%; min SC luc (CMV-luc): 128.4% |
| STROPH[…] LACTONE ACETATE | −3.855 SD | 37 | 20 | −3.855 SD | – | – | – |
| COC(=O)C1=C(C)NC(C)=C(C(=O)OCCN(C)Cc2ccccc2)C1c1cccc([N+](=O)[O-])c1 (stereo not drawn) [NICARDIPINE] | −2.782 SD | 112 | – | −2.782 SD | 61% | – | – |
| CC(=O)O[C@H]1C[C@H](O[C@H]2[C@@H](O)C[C@H](O[C@H]3[C@@H](O)C[C@H](O[C@H]4CC[C@@]5(C)[C@H](CC[C@@H]6[C@@H]5C[C@@H](O)[C@]5(C)[C@@H](C7=CC(=O)OC7)CC[C@]65O)C4)O[C@@H]3C)O[C@@H]2C)O[C@H](C)[C@H]1O[C@@H]1O[C@H](CO)[C@@H](O)[C@H](O)[C@H]1O [LANATOSIDE C] | −4.323 SD | 39 | 15 | −4.323 SD | – | – | SD from Mean (ATXN2-luc [1]; Table 1, 24 hrs, single 10 μM dose, Z-score of luciferase, listed as Lanatoside C): −3.629 SD; SD from Mean (ATXN2-luc [1]; Table 5S, pilot screen, 10 μM, listed as Lanatoside C): −3.629 SD |
| C/C1=C2/[N-][C@H]([C@H](CC(N)=O)[C@@]2(C)CCC(=O)NC[C@@H](C)OP(=O)([O-])O[C@H]2[C@@H](O)[C@@H](n3cnc4cc(C)c(C)cc43)O[C@@H]2CO)[C@]2(C)N=C(/C(C)=C3N=C(/C=C4N=C1[C@@H](CCC(N)=O)C\4(C)C)[C@@H](CCC(N)=O)[C@]\3(C)CC(N)=O)[C@@H](CCC(N)=O)[C@]2(C)CC(N)=O.[Co] [COBALAMINE] | −5.111 SD | 126 | 109 | −5.111 SD | – | – | – |
| CC[C@H]1CN2CCc3cc(OC)c(OC)cc3[C@@H]2C[C@@H]1C[C@H]1NCCc2cc(O)c(OC)cc21.Cl.Cl.O.O.O.O.O.O.O [Cephaeline dihydrochloride heptahydrate] | −4.055 SD | 16 | 17 | −4.055 SD | – | – | – |
| CCN(CC)CCCCCCCCOC(=O)c1cc(OC)c(OC)c(OC)c1 [TMB-8] | −5.740 SD | 66 | 53 | −5.740 SD | – | – | – |
| CC(=O)O[C@H]1CC[C@@]2(C)[C@H](CC[C@@H]3[C@@H]2CC[C@]2(C)[C@@H](C4=CC(=O)OC4)[C@@H](OC(C)=O)C[C@]32O)C1 [GITOXIGENIN DIACETATE] | −4.261 SD | – | – | −4.261 SD | 21% | 27% | – |
| C[C@H]1O[C@@H](O[C@H]2[C@@H](O)C[C@H](O[C@H]3[C@@H](O)C[C@H](O[C@H]4CC[C@@]5(C)[C@H](CC[C@@H]6[C@@H]5CC[C@]5(C)[C@@H](C7=CC(=O)OC7)[C@@H](O)C[C@]65O)C4)O[C@@H]3C)O[C@@H]2C)C[C@H](O)[C@@H]1O [GITOXIN] | −4.086 SD | – | – | −4.086 SD | 12% | 21% | – |
| COc1ccc(CCCOC(Cn2ccnc2)c2ccc(OC)cc2)cc1 (stereo not drawn) [SKF-96365] | −2.721 SD | – | – | −2.721 SD | 57% | 104% | – |
| C[n+]1cc2c3c(ccc2c2ccc4cc5c(cc4c21)OCO5)OCO3 [Sanguinarine] | −2.689 SD | 127 | – | −2.689 SD | 160% | – | – |
| C[C@H]1O[C@@H](O[C@H]2[C@@H](O)C[C@H](O[C@H]3[C@@H](O)C[C@H](O[C@H]4CC[C@@]5(C)[C@H](CC[C@@H]6[C@@H]5CC[C@]5(C)[C@@H](C7=CC(=O)OC7)CC[C@]65O)C4)O[C@@H]3C)O[C@@H]2C)C[C@H](O)[C@@H]1O [DIGITOXIN] | −4.100 SD | – | – | −4.100 SD | 19% | 27% | – |
| C[C@]12CC[C@H](O)C[C@H]1CC[C@@H]1[C@@H]2CC[C@]2(C)[C@@H](C3=CC(=O)OC3)CC[C@]12O [Digitoxigenin] | −3.629 SD | – | – | −3.629 SD | 13% | 38% | – |
| COc1ccc(CN2CCN(C(c3ccc(F)cc3)c3ccc(F)cc3)CC2)c(OC)c1OC [LOMERIZINE DiHCl] | −2.782 SD | 102 | – | −2.782 SD | 55% | – | – |
| CN1CCN(CCCN2c3ccccc3Sc3ccc(C(F)(F)F)cc32)CC1 [TRIFLUOPERAZINE HYDROCHLORIDE] | −5.856 SD | – | – | −5.856 SD | 2% | – | – |
| Cyanocobalamin | −2.681 SD | 110 | 140 | −2.681 SD | – | – | – |
| C[C@]12CC[C@H]3[C@@H](CC[C@]4(O)C[C@@H](O)CC[C@]34C=O)[C@@]1(O)CC[C@@H]2C1=CC(=O)OC1 [STROPHANTHIDIN] | – | – | – | −4.451 SD | 15% | 16% | – |
| CO[C@H]1C[C@H](O[C@H]2CC[C@]3(C)[C@H]4CC[C@]5(C)[C@@H](C6=CC(=O)OC6)CC[C@]5(O)[C@@H]4CC[C@]3(O)C2)O[C@H](C)[C@H]1O [PERIPLOCYMARIN] | −2.759 SD | – | – | – | 17% | 75% | – |
| C[C@]12CC[C@H](O)C[C@H]1CC[C@@H]1[C@@H]2[C@H](O)C[C@]2(C)[C@@H](C3=CC(=O)OC3)CC[C@]12O [SARMENTOGENIN] | −3.539 SD | – | – | – | 24% | 53% | – |
| C[C@@H]1O[C@@H](O[C@H]2CC[C@]3(C=O)[C@H]4CC[C@]5(C)[C@@H](C6=CC(=O)OC6)CC[C@]5(O)[C@@H]4CC[C@]3(O)C2)[C@H](O)[C@H](O)[C@H]1O [CONVALLATOXIN] | −3.689 SD | – | – | −3.689 SD | 11% | 12% | – |

From patent US20260137707A1, “METHODS OF MODULATING ATXN2 EXPRESSION” (University of Utah Research Foundation, priority 2022, published 2026)
